Data: paper PMC4884932, “Selective brain penetrable Nurr1 transactivator for treating Parkinson's disease” (Oncotarget, 2016)
Where two headings read alike, the source gives them in different places.

How the values were obtained:
[1] = molecular target: T1, Nurr1 (Homo sapiens, UniProt P43354); assay: Nurr1 transactivation assay in COS7 cells without RXRα; assay type: cell-based; settings: Nurr1 in the absence of RXRα
T1 construct: full length Nurr1 with or without full-length RXRα plasmid; expressed in transfected cells; host or cells: COS7
T1 sequence (P43354 whole entry, species assumed): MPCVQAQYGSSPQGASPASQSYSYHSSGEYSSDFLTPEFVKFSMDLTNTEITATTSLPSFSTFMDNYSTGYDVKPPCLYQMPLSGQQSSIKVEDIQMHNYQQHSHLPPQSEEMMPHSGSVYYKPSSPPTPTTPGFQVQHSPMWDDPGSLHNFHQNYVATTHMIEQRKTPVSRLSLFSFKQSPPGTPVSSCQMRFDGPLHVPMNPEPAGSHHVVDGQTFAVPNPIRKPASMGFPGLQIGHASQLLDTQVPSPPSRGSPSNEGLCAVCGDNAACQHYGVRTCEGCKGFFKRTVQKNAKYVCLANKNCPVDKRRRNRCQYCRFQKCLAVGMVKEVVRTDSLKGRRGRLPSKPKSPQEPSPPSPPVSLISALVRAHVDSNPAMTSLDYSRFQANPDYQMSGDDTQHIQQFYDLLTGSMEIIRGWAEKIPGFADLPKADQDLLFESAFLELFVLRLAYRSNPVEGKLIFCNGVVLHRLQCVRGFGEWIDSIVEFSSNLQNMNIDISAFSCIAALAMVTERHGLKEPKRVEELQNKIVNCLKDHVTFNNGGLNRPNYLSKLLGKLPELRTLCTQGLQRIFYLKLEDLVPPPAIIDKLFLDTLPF
Source text: For RXR: CV-1 cells were transfected with rCRBPII/RXRE-tk-Luc reporter gene and an expression vector for RXRα, β, or γ. For RAR: CV-1 cells were transfected with ERE-tk-Luc reporter gene and an expression vector for the appropriate ER-RARα, β, or γ. ER-RARs are fusion proteins, composed of the estrogen receptor (ER) DNA binding domain fused to the ligand binding domain of RARs. This system eliminates interference by the low level of endogenous RAR activity in CV1 cells as the readout comes only from the transfected ER-RAR. For PPARγ: CV-1 cells were transfected with 3x(rAOX/DR1)-tk-Luc reporter gene and an expression vector for PPARγ; for FXR: CV-1 cells were transfected with 3x(IBABP/IR1)-tk-Luc reporter gene and vectors for FXR and RXRα; for LXR: CV-1 cells were transfected with 3x(PLTP/LXRE)-tk-Luc reporter gene with vectors for LXRα or LXRβ. For Nurr1: COS7 cells were transfected with 3xNBRE-tk-luc reporter gene and full length Nurr1 with or without full-length RXRα plasmid. […] Luciferase data were normalized to co-transfected β-gal activity. Luciferase activity is expressed as percent of maximal activity obtained using specific agonists 9-cis-retinoic acid (RXR), retinoic acid (RAR), rosiglitazone (PPARγ), GW4064 (FXR), T0901317 (LXR).

[2] = test system: 6-OHDA lesioned rats; assay: DAT and TH content in the striatum by Western blot, 6-OHDA lesioned rats; assay type: in vivo, rat; settings: 10mg/kg/day gavage for three weeks
Protocol: All surgical procedures were performed under general anesthesia with ketamine/xylazine. 2μl 6-OHDA (20 mg/ml in 0.02% ascorbic acid) was stereotaxically injected into the right striatum of male SD rats. Lesion coordinates were set according to bregma and dura in mm: ML-3.7; AP-1.0; DV-5.5. The injection rate was 2μl/5 min and the injecting needle was left for 2 minutes after injection to avoid back flow. Apomorphine-induced rotations (see below) were assessed three days post-lesion and rats with ≥ 30 full contralateral rotation/30 minutes were included in the study.
Rats were randomly grouped into vehicle control group (n = 11) and drug treatment group (n = 10). […] The control group received DMSO/corn oil (vehicle). The treatment continued for three weeks.
Striatum samples were homogenized and boiled in SDS-PAGE sample buffer and separated onto 10% Tris-glycine gels. Western blotting was performed using anti-TH or anti-DAT (Millipore, Billerica, MA), as primary antibodies and enhanced chemiluminescence signals were quantified and normalized with β-actin.

[3] = Plasma pharmacokinetics after oral gavage; assay type: in vivo; settings: SD, rat
Protocol: […] Rats were treated with the designated dose by daily gavage. Acute plasma PK was conducted on day one and acute-on-chronic plasma PK was conducted on day 24. Pharmacokinetic assessment was conducted by collecting of blood at baseline (prior gavage), 0.25, 0.5, 1, 2, 4, 8, 12 and 24h post gavage. […] The spiked plasma was dialyzed at 37°C against an isotonic sodium phosphate buffer to achieve equilibrium. At the end of dialysis, the plasma and buffer level of IRX4204 were quantified by LC/MS/MS.
The LC/MS system was comprised of Waters Acquity Ultra Performance Liquid Chromatography (UPLC) coupled to a XEVO-TQS (Waters). The samples were analyzed by reverse-phase HPLC using a Waters Atlantis T3 column (150 × 2.1mm, 5um). The mobile phase was nebulized using heated nitrogen in a Z-spray source/interface set to electrospray negative ionization mode. The ionized compounds were detected using MS/MS. […] The detection was linear between 2.5nM to 10nM.

[4] = female, 1 mg/kg/day, 1mg/kg/day gavage, Week 4
[5] = female, 1 mg/kg/day, Female, 1mg/kg/day gavage, Day 1
[6] = female, 3 mg/kg/day, 3mg/kg/day gavage, Week 4
[7] = female, 3 mg/kg/day, Female, 3mg/kg/day gavage, Day 1
[8] = female, 10 mg/kg/day, 10 mg/kg/day gavage, Week 4
[9] = female, 10 mg/kg/day, Female, 10 mg/kg/day gavage, Day 1
[10] = male, 1 mg/kg/day, 1mg/kg/day gavage, Week 4
[11] = male, 1 mg/kg/day, Male, 1mg/kg/day gavage, Day 1
[12] = male, 3 mg/kg/day, 3mg/kg/day gavage, Week 4
[13] = male, 3 mg/kg/day, Male, 3mg/kg/day gavage, Day 1
[14] = male, 10 mg/kg/day, 10 mg/kg/day gavage, Week 4
[15] = male, 10 mg/kg/day, Male, 10 mg/kg/day gavage, Day 1

reporter gene activation [1]: base level of reporter gene activation | Cmax [3, 4]: 43.4 ng/mL | Tmax [3, 4]: 15 min | Cmax [3, 5]: 120 ng/mL | Tmax [3, 5]: 30 min | AUC(0-t) ([3]; female, 1 mg/kg/day, Female, 1mg/kg/day gavage, Day 1, read-out: AUC0-24): 251 ng·h/mL | AUC(0-t) ([3]; female, 1 mg/kg/day, Female, 1mg/kg/day gavage, Week 4, read-out: AUC0-24): 136 ng·h/mL | Cmax [3, 6]: 101 ng/mL | Tmax [3, 6]: 60 min | Cmax [3, 7]: 362 ng/mL | Tmax [3, 7]: 30 min | AUC(0-t) ([3]; female, 3 mg/kg/day, Female, 3mg/kg/day gavage, Day 1, read-out: AUC0-24): 975 ng·h/mL | AUC(0-t) ([3]; female, 3 mg/kg/day, Female, 3mg/kg/day gavage, Week 4, read-out: AUC0-24): 344 ng·h/mL | Cmax [3, 8]: 667 ng/mL | Tmax [3, 8]: 15 min | Cmax [3, 9]: 974 ng/mL | Tmax [3, 9]: 30 min | AUC(0-t) ([3]; female, 10 mg/kg/day, Female, 10 mg/kg/day gavage, Day 1, read-out: AUC0-24): 2440 ng·h/mL | AUC(0-t) ([3]; female, 10 mg/kg/day, Female, 10 mg/kg/day gavage, Week 4, read-out: AUC0-24): 940 ng·h/mL | Cmax [3, 10]: 25.7 ng/mL | Tmax [3, 10]: 15 min | Cmax [3, 11]: 58.9 ng/mL | Tmax [3, 11]: 30 min | AUC(0-t) ([3]; male, 1 mg/kg/day, Male, 1mg/kg/day gavage, Day 1, read-out: AUC0-24): 140 ng·h/mL | AUC(0-t) ([3]; male, 1 mg/kg/day, Male, 1mg/kg/day gavage, Week 4, read-out: AUC0-24): 27.5 ng·h/mL | Cmax [3, 12]: 54.5 ng/mL | Tmax [3, 12]: 30 min | Cmax [3, 13]: 198 ng/mL | Tmax [3, 13]: 30 min | AUC(0-t) ([3]; male, 3 mg/kg/day, Male, 3mg/kg/day gavage, Day 1, read-out: AUC0-24): 484 ng·h/mL | AUC(0-t) ([3]; male, 3 mg/kg/day, Male, 3mg/kg/day gavage, Week 4, read-out: AUC0-24): 280 ng·h/mL | Cmax [3, 14]: 77.2 ng/mL | Tmax [3, 14]: 15 min | Cmax [3, 15]: 542 ng/mL | Tmax [3, 15]: 15 min | AUC(0-t) ([3]; male, 10 mg/kg/day, Male, 10 mg/kg/day gavage, Day 1, read-out: AUC0-24): 1490 ng·h/mL | AUC(0-t) ([3]; male, 10 mg/kg/day, Male, 10 mg/kg/day gavage, Week 4, read-out: AUC0-24): 422 ng·h/mL
SMILES: CC(/C=C/[C@@H]1C[C@]1(C)c1ccc2c(c1)C(C)(C)CCC2(C)C)=C\C(=O)O [IRX4204]
DAT content in the lesioned striatum versus non-lesioned side [2]: almost identical to those in the non-lesioned side | TH content in the lesioned striatum versus non-lesioned side [2]: almost identical to those in the non-lesioned side
